Key:
P. falciparum = test: In vitro antiplasmodial activity, MSF assay, strain not specified or all 3 strains together; type: cell-based, Plasmodium falciparum; details: for reduction of potency relative to ELQ-121: relative to ELQ-121, in vitro testing; for IC50: strain not stated, read-out: IC50 (effect of 3-position side chain length); for in vitro antiplasmodial activity (SAR remark in words): compared within the endochin series
Description: (§1) Plasmodium falciparum strains D6 and Dd2 were obtained from the MR4 (ATCC, Manassas, Va., USA). D6 is sensitive to chloroquine but mildly resistant to mefloquine while Dd2 is resistant to multiple quinoline and antifolate antimalarial agents. Tm90.C2B is resistant to atovaquone, chloroquine, mefloquine, and quinine.
Three different laboratory strains of P. falciparum were cultured in human erythrocytes by standard methods under a low oxygen atmosphere (5% O2, 5% CO2, 90% N2) in an environmental chamber as described in Trager, W., and J. B. Jensen. 1976. Human malaria parasites in continuous culture. Science 193:673-5. The culture medium was RPMI-1640, supplemented with 25 mM HEPES buffer, 25 mg/L gentamicin sulfate, 45 mg/L hypoxanthine, 10 mM glucose, 2 mM glutamine, and 0.5% Albumax II (complete medium). The parasites were maintained in fresh human erythrocytes suspended at a 2% hematocrit in complete medium at 37° C. Stock cultures were sub-passaged every 3 to 4 days by transfer of infected red cells to a flask containing complete medium and uninfected erythrocytes.
In vitro antimalarial activity of the compounds was assessed by the SYBR Green I fluorescence-based method (the “MSF assay”) described previously by Smilkstein, M., N. Sriwilaijaroen, J. X. Kelly, P. Wilairat, and M. Riscoe. 2004. Simple and inexpensive fluorescence-based technique for high-throughput antimalarial drug screening. Antimicrob Agents Chemother 48:1803-6 with minor modifications (Winter, R. W., J. X. Kelly, M. J. Smilkstein, R. Dodean, G. C. Bagby, R. K. Rathbun, J. I. Levin, D. Hinrichs, and M. K. Riscoe. 2006. Evaluation and lead optimization of anti-malarial acridones. Exp Parasitol 114:47-56). Experiments were set up in triplicate in 96 well plates (Costar, Corning) with two-fold dilutions of each drug across the plate in a total volume of 100 microliters and at a final red blood cell concentration of 2% (v/v). Stock solutions of each drug were prepared by dissolving in ethanol or dimethylsulfoxide (as appropriate) at 10 mM. […] Automated pipeting and dilution was carried out with the aid of a programmable Precision 2000 robotic station (BioTek, Winooski, Vt.). An initial parasitemia of 0.2% was attained by addition of normal uninfected red cells to a stock culture of asynchronous parasite infected red cells (PRBC). The plates were incubated for 72 hrs at 37° C. in an atmosphere of 5% CO2, 5% O2, and 90% N2. After this period the SYBR Green I dye-detergent mixture (100 μl) was added and the plates were incubated at room temperature for an hour in the dark and then placed in a 96-well fluorescence plate reader (Spectramax Gemini-EM, […]) for analysis with excitation and emission wavelength bands centered at 497 and 520 nm, respectively. The fluorescence readings were plotted against the logarithm of the drug concentration and curve fitting by nonlinear regression analysis (GraphPad Prism software) yielded the drug concentration that produced 50% of the observed decline relative to the maximum readings in drug-free control wells (IC50).
The compounds were screened for antiplasmodial activity in vitro against chloroquine (CQ) sensitive (D6), multidrug resistant (Dd2), and chloroquine/quinine/atovaquone (ATV)-resistant (Tm90.C2B) strains of P. falciparum. […] The following observations on the structure-activity relationships (SAR) can be made: • 1. It may be observed that the length of the 3-position side chain influences the antiplasmodial effect.

[1] = tested on: Plasmodium falciparum strain Tm90.C2B (chloroquine/quinine/atovaquone-resistant); test: In vitro antimalarial activity, MSF assay, strain Tm90.C2B; type: cell-based; details: Tm90.C2B compared with the other strains
Description: as §1
(§2) Three different laboratory strains of P. falciparum were cultured in human erythrocytes by standard methods under a low oxygen atmosphere (5% O2, 5% CO2, 90% N2) in an environmental chamber as described in Trager, W., and J. B. Jensen. 1976. Human malaria parasites in continuous culture. Science 193:673-5. […]
(§3) In vitro antimalarial activity of the compounds was assessed by the SYBR Green I fluorescence-based method (the “MSF assay”) described previously by Smilkstein, M., N. Sriwilaijaroen, J. X. Kelly, P. Wilairat, and M. Riscoe. […] Simple and inexpensive fluorescence-based technique for high-throughput antimalarial drug screening. […] After this period the SYBR Green I dye-detergent mixture (100 μl) was added and the plates were incubated at room temperature for an hour in the dark and then placed in a 96-well fluorescence plate reader (Spectramax Gemini-EM, […]) for analysis with excitation and emission wavelength bands centered at 497 and 520 nm, respectively. […]

[2] = tested on: Plasmodium falciparum strain D6 (chloroquine sensitive); test: In vitro antimalarial activity, SYBR Green I fluorescence-based method (MSF assay), strain D6; type: cell-based; details: P. falciparum D6, 72 hrs
Description: as §1, §2, §3

P. yoelii = test: In vivo efficacy in a murine malaria model of patent infection with P. yoelii (modified Thompson procedure)
Description: The activity of the ester, ELQ-125, against the blood stages was assessed using a modified Thompson procedure (Arba Ager, 1984). Rodent malaria models, vol. 68/1. Springer-Verlag, Berlin. Mice (female, CF1) were infected intravenously with 1-5 million P. yoelii parasitized erythrocytes from a donor animal. […] The drug was administered by gavage once daily for 3 days. On the 4th day blood films were prepared and the extent of parasitemia was determined microscopically. ED50 and ED90 values (mg/kg/day) were derived from the dose required to reduce the parasite burden by 50% and 90%, respectively, relative to drug-free controls. The procedures involved, together with all matters relating to the care and housing of the animals used in this study, were approved by the Portland VA Medical Center Institutional Animal Care and Use Committee (approval #0807).
Prodrugs containing a water-soluble pro-moiety that could be metabolically released after drug administration were designed and synthesized.

[3] = Water solubility and vehicle miscibility of the prodrug; type: physicochemical; details: prodrug compared with ELQ-121
[4] = tested on: Toxoplasma gondii strain 2F; test: Anti-T. gondii activity, 2F strain beta-galactosidase assay in HFF cells; type: cell-based; details: compared with the correlation seen for P. falciparum
Description: Determination of anti-T. gondii IC50 and TD50 values—use of the 2F strain. This method, which employs tachyzoites of Toxoplasma gondii strain 2F that constitutively expresses cytoplasmic Beta-galactosidase, has been described recently by Jones-Brando et al. (Jones-Brando, L., D'angelo, J., Posner, G H, and Yolken, R., 2006, In vitro inhibition of Toxoplasma gondii by four new derivatives of artemisinin, Antimicrobial Agents and Chemotherapy 50: 4206-8). […] Briefly, each drug was dissolved in ethanol or DMSO, as appropriate, at a concentration of 10 mM and diluted with complete Dulbecco's modified Eagle's medium (DMEM) to 1,000 μM. […] After this period, Triton X-100 is added to inactivate the parasite and the color reactions in the wells were read in a microplate reader. For anti-T. gondii IC50 determinations, the plates are read at 570-650 nm. The amount of absorbance (570-650 nm) in wells containing drug, parasites, and CPRG reagent is compared to that in control wells containing T. gondii, HFF cells and CPRG. The amount of absorbance in these wells is directly proportional to the amount of beta-galactosidase activity and thus correlative to the number of viable tachyzoites in each well. Thus, a decrease in the amount of absorbance indicates an inhibition of parasite growth. […]

[5] = mice, gavage once daily for 3 days in 100 μl NeoBee M5

For `CCCCCCCc1c(C)[nH]c2c(F)cc(F)cc2c1=O` [6,8-difluoro positional isomer], the “reduction of potency relative to ELQ-121” value (P. falciparum) was “≈ 2,000 fold”.

With `CCCCCCCc1c(C)[nH]c2cc(OC)ccc2c1=O` [ELQ-100, endochin, reference compound] the “cross-resistance / sensitivity of atovaquone-resistant Tm90.C2B (in words)” value [1] was “modest level of ATV cross-resistance” and the IC50 (P. falciparum) was about 3 nM.

For `COc1ccc2c(=O)c(CCCCCCCCCCC(F)(F)F)c(C)[nH]c2c1` [ELQ-103], the “IC50 values for all 3 tested strains (in words)” value (P. falciparum; D6, Dd2 and Tm90.C2B) was “low nanomolar range”.

Molecule `CCCCCCCc1c(O)[nH]c2cc(OC)ccc2c1=O` [ELQ-106] has an IC50 [2] of over 2500 nM.

For `CCCCCCCc1c(C)[nH]c2cc(Cl)ccc2c1=O` [ELQ-109], the “in vitro antiplasmodial activity (SAR remark in words)” value (shortened to “in vitro antiplasmodial activity”) (P. falciparum) was “only a modest reduction in in vitro potency”.

With `CCCCc1c(C)[nH]c2cc(OC)ccc2c1=O` [ELQ-115] the IC50 (P. falciparum) was about 30 nM.

In the case of `CCCCCCCc1c(C)[nH]c2cc(O)ccc2c1=O` [ELQ-117], the “in vitro antiplasmodial activity” value (P. falciparum) is reported as “greatly diminishes antiplasmodial activity”.

For `CCCCCCCc1c(C)nc2cc(F)cc(F)c2c1Cl` [ELQ-119], the “reduction of potency relative to ELQ-121” value (P. falciparum) was > 1,000 fold.

With `CCCCCCCc1c(C)[nH]c2cc(F)ccc2c1=O` [ELQ-120] the “in vitro antiplasmodial activity” value (P. falciparum) was “only a modest reduction in in vitro potency”.

For `CCCCCCCc1c(C)[nH]c2cc(F)cc(F)c2c1=O` [ELQ-121, 2-Methyl-3-(n-heptyl)-5.7-difluorquinolone], the “in vitro antiplasmodial activity” value (P. falciparum) was “one of the most potent compounds in the tested series”.

For `CCCCCCCc1c(C)[nH]c2cc(Cl)cc(Cl)c2c1=O` [ELQ-124], the “in vitro antiplasmodial activity” value (P. falciparum) was “weak in vitro activity”.

For `CCCCCCCc1c(C)nc2cc(F)cc(F)c2c1OC(=O)OCCOCCOCCOCCOC` [ELQ-125], the “parasite status on follow-up” value (P. yoelii; 25 mg/kg/day oral, 3 days, followed until euthanized 10 days later) was “remained parasite-free”, the ED50 (P. yoelii; [5]) was 11 mg/kg/day and the ED90 (P. yoelii; [5]) was 22 mg/kg/day. The “in vivo efficacy (in words)” value (P. yoelii; prodrug compared with ELQ-121) was “greatly enhanced in vivo efficacy” and the water solubility [3] was “improved water solubility”.

In the case of `CCCCCCCc1c(C)[nH]c2ccccc2c1=O` [ELQ-127], the “in vitro antiplasmodial activity” value (P. falciparum) is reported as “equally active against all three parasite strains” and the “weakening of in vitro activity relative to endochin” value (P. falciparum; relative to endochin) is reported as “roughly 5 fold”.

With `CCCCCCCc1c(C)[nH]c2ccc(Cl)cc2c1=O` [ELQ-130] the “cross-resistance / sensitivity of atovaquone-resistant Tm90.C2B (in words)” value [1] was “equal sensitivity” and the “in vitro antiplasmodial activity” value (P. falciparum) was “modest reduction in antimalarial response”.

In the case of `CCCCCCCc1c(C)n(C)c2cc(F)cc(F)c2c1=O` [ELQ-134], the “growth inhibitory activity against Toxoplasma gondii (in words)” value [4] is reported as “enhanced growth inhibitory activity” and the “reduction of potency relative to ELQ-121” value (P. falciparum) is reported as “about 300 fold”.

Source: patent US8598354B2, “Compounds having antiparasitic or anti-infectious activity” (University of South Florida, priority 2008, dated 2013)
